Reference: US20110009351A1, “SCREENING ASSAY TO IDENTIFY CORRECTORS OF PROTEIN TRAFFICKING DEFECTS” (Traffick Therepeutics Inc., priority 2007, published 2011)
Structures can show the parent of a compound that is named as a salt.

Tests used:
[1] = molecular target: T1, ΔF508-CFTR (Homo sapiens, UniProt P13569, DEL508-508); type: cell-based; design: which was then ligated into full length pNUT-CFTR linearized using Hpa1 and Pml1; expressed in transfected cells
Outline: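 BHK cells stably expressing 3HA-tagged ΔF508-CFTR (tags in fourth extracellular loop) treated with compound at 20 μM final for 24 h at 37° C. Surface ΔF508-CFTR measured on fixed, non-permeabilised cells by anti-HA/FITC immunofluorescence (488/510 nm), relative to untreated-well background; hits retested in duplicate, intrinsically fluorescent compounds excluded.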

[2] = molecular target: T1, ΔF508-CFTR; assay: short-circuit current (Isc) across CFBE41o− monolayers in Ussing chambers; type: cell-based; design: expressed in transfected cells; host or cells: CFBE41o- (ΔF508/ΔF508) transduced with ΔF508-CFTR, TranzVector lentivirus, provided by J. P. Clancy; details: 10 μM, 24 h
Protocol: Short-circuit current (Isc) was measured across monolayers in modified Ussing chambers. 1×10^6 CFBE41o^− cells were seeded onto 12-mm fibronectin-coated Snapwell inserts (Corning Incorporated, Life Sciences, New-York, N.Y.) and the apical medium was removed after 24 h. Transepithelial resistance was monitored using an EVOM epithelial voltohmmeter (World Precision Instruments, Sarasota, Fla.) and cells were used when the transepithelial resistance was 300-400 ohms·cm^2. In some experiments, F508del-CFBE41o^− monolayers were incubated at 29° C. or treated with glafenine at 37° C. for 24 h before being mounted in EasyMount chambers and voltage clamped using a VCCMC6 multichannel current-voltage clamp (Physiologic Instruments, San Diego, Calif.). The apical membrane conductance was functionally isolated by permeabilizing the basolateral membrane with 200 μg/ml nystatin and imposing an apical-to-basolateral Cl^− gradient. For these experiments the basolateral bathing solution contained (in mM) 1.2 NaCl, 115 Na-gluconate, 25 NaHCO3, 1.2 MgCl2, 4 CaCl2, 2.4, KH2PO4, 1.24 K2HPO4, 10 glucose (pH 7.4 with NaOH). The CaCl2 concentration was increased to 4 mM to compensate for the chelation of calcium by gluconate. The apical bathing solution contained (in mM) 115 NaCl, 25 NaHCO3, 1.2 MgCl2, 1.2 CaCl2, 2.4 KH2PO4, 1.24 K2HPO4, 10 mannitol (pH 7.4 with NaOH). […]

T1 sequence (P13569 with tags, fused parts or gaps DEL508-508): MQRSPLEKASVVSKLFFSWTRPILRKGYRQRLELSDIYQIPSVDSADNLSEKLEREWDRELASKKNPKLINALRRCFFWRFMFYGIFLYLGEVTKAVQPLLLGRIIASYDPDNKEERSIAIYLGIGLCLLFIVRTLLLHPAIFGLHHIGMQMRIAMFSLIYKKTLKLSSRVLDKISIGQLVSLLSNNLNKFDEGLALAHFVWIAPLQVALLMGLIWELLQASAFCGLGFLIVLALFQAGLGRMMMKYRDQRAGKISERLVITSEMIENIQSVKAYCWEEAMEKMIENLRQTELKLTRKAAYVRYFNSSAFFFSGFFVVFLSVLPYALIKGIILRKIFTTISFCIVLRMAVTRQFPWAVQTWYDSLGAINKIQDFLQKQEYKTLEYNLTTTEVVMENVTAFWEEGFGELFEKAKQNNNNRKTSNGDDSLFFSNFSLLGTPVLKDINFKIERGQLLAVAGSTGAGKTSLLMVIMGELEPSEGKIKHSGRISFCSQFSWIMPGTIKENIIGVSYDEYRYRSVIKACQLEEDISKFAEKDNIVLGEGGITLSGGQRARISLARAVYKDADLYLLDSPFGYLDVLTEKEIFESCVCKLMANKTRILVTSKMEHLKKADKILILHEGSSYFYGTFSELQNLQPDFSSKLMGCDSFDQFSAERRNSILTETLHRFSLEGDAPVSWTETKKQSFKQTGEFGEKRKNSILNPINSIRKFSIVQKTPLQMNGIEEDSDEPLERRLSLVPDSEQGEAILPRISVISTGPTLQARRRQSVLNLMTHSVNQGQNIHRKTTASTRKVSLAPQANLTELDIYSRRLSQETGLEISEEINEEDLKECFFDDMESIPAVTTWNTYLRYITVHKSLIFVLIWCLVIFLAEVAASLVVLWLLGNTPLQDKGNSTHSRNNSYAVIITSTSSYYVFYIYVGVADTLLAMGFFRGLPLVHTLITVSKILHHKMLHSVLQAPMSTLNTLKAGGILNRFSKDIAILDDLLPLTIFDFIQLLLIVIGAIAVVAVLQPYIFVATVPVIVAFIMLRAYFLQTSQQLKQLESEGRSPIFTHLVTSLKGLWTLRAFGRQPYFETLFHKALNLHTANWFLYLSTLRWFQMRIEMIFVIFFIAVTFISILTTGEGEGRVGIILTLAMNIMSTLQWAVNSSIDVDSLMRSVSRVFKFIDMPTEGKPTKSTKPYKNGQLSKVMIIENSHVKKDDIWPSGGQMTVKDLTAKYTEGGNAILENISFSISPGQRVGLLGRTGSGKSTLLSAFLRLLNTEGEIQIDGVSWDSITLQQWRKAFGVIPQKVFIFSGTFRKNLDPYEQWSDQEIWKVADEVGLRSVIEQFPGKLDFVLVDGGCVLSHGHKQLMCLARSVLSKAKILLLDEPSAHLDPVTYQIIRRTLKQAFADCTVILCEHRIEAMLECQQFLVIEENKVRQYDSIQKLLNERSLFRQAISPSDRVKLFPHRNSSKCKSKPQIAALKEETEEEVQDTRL

## O=C(OCC(O)CO)c1ccccc1Nc1ccnc2cc(Cl)ccc12 (stereo not shown) [Glafenine hydrochloride, 2-[(7-chloro-4-quinolinyl)amino]benzoic acid 2,3-dihydroxypropyl ester]
[1]; 10 μM, 24 h, compared with vehicle alone
  ΔF508-CFTR surface expression increase, normalized to BHK cells expressing wild-type CFTR: 40%
[1]; Prestwick library, initial corrector assay, BHK cells
  hit in screen (class letter): W (Medium and weak hits were defined as compounds giving a cell fluorescence signal that was between 2 and 3 or 1 and 2 standard deviations, respectively, above untreated control wells)
[1]; Prestwick library, initial corrector assay, standard deviations above untreated controls
  hit in screen (score): 1.3
[2]
  increase of forskolin+genistein-stimulated Isc compared with DMSO controls: about 2.5 fold
